Test results reported in ChEMBL document CHEMBL1140600, “Recent advances in proton pump inhibitors and management of acid-peptic disorders” (Bioorg Med Chem, 2007).

experiment: Inhibition of H+/K+ ATPase

SMILES	IC50
CCOC(=O)c1cnc(C[S+]([O-])c2nc3ccccc3[nH]2)nc1N(C)C (stereo unspecified)	7.5 µM
COc1ccc2[nH]c([S+]([O-])Cc3ncc(C)c(OC)c3C)nc2c1 (stereo unspecified) [OMEPRAZOLE]	5.8 µM

experiment: Dissociation constant, pKa of the compound; type: physicochemical

SMILES	pKa
COc1ccnc(C[S+]([O-])c2nc3ccc(OC(F)F)cc3[nH]2)c1OC (stereo unspecified) [PANTOPRAZOLE]	4
Cc1c(OCC(F)(F)F)ccnc1C[S+]([O-])c1nc2ccccc2[nH]1 (stereo unspecified) [LANSOPRAZOLE]	4
COCCCOc1ccnc(C[S+]([O-])c2nc3ccccc3[nH]2)c1C (stereo unspecified) [RABEPRAZOLE]	5
COc1ccc2nc([S@@+]([O-])Cc3ncc(C)c(OC)c3C)[nH]c2c1 [ESOMEPRAZOLE]	4
